Target: binding of human von Willebrand factor to europium (Eu)-chelate-labeled chimeric GPIb-Fc protein (Homo sapiens, UniProt P04275+P07359)
Test: Von Willebrand Factor-GPIb Binding Assay (Eu based, botrocetin-induced)
Conditions: botrocetin-induced binding of Eu-chelate-labeled chimeric GPIb-Fc to immobilized human vWF; IC50 values as specified in the examples
Protocol: Activity of compounds of the formula I was shown by an Eu based binding assay in which the binding of human von Willebrand factor to an europium (Eu)-chelate-labeled chimeric GPIb-Fc protein was induced by botrocetin. The preparation of the Eu-chelate-labeled chimeric GPIb-Fc protein is described in detail in a patent application (Fukuchi et al., EP1074564).
A TBS (Tris buffered saline, 20 mM Tris-HCl (pH 7.4) and 0.15 M NaCl) (50 microl) containing human von Willebrand factor (2.5 microg/ml) was added to each well of 1 96-well plate, and the von Willebrand factor was immobilized as a solid phase overnight at 4 dec. Each well was washed once with TBS (150 microl) and blocked with TBS containing 5% BSA (bovine serum albumin) for about 3 hours. Each well of the plate was washed twice with TBS (150 microl), and then added with 25 microl of an assay buffer (Assay Buffer, 1244-106, produced by Wallac) with the compounds, further added with the assay buffer (25 microl) containing the europium (Eu)-chelate-labeled chimeric GPIb-Fc protein (100 ng/ml), labeled with Eu-N1-ITC (Eu-chelate of N^1-(p-isothiocyanatebenzyl)-diethlenetriamine-N^1,N^2,N^3,N^3-tetraacetic acid, 1244-302, produced by Wallac) and botrocetin (500 ng/ml), and left stand at room temperature for 2 hours. The preparation of the Eu-chelate-labeled chimeric GPIb-Fc protein is described in detail in a patent application (Fukuchi et al., EP1074564). Each well of the plate was washed 5 times with TBS (150 microl) containing 0.05% Tween-20, then added with 100 microl of a fluorescence enhancement buffer (Enhancement Solution, 1244-104, produced by Wallac), and shaken for 1 minute. Then, the amount of europium (Eu) was measured by using a 1420 ARVO multi-label counter (produced by Wallac, measurements time: 1 second).

binding of human von Willebrand factor to europium (Eu)-chelate-labeled chimeric GPIb-Fc protein, sequence (P04275 764-2813 limits assumed, change not shown): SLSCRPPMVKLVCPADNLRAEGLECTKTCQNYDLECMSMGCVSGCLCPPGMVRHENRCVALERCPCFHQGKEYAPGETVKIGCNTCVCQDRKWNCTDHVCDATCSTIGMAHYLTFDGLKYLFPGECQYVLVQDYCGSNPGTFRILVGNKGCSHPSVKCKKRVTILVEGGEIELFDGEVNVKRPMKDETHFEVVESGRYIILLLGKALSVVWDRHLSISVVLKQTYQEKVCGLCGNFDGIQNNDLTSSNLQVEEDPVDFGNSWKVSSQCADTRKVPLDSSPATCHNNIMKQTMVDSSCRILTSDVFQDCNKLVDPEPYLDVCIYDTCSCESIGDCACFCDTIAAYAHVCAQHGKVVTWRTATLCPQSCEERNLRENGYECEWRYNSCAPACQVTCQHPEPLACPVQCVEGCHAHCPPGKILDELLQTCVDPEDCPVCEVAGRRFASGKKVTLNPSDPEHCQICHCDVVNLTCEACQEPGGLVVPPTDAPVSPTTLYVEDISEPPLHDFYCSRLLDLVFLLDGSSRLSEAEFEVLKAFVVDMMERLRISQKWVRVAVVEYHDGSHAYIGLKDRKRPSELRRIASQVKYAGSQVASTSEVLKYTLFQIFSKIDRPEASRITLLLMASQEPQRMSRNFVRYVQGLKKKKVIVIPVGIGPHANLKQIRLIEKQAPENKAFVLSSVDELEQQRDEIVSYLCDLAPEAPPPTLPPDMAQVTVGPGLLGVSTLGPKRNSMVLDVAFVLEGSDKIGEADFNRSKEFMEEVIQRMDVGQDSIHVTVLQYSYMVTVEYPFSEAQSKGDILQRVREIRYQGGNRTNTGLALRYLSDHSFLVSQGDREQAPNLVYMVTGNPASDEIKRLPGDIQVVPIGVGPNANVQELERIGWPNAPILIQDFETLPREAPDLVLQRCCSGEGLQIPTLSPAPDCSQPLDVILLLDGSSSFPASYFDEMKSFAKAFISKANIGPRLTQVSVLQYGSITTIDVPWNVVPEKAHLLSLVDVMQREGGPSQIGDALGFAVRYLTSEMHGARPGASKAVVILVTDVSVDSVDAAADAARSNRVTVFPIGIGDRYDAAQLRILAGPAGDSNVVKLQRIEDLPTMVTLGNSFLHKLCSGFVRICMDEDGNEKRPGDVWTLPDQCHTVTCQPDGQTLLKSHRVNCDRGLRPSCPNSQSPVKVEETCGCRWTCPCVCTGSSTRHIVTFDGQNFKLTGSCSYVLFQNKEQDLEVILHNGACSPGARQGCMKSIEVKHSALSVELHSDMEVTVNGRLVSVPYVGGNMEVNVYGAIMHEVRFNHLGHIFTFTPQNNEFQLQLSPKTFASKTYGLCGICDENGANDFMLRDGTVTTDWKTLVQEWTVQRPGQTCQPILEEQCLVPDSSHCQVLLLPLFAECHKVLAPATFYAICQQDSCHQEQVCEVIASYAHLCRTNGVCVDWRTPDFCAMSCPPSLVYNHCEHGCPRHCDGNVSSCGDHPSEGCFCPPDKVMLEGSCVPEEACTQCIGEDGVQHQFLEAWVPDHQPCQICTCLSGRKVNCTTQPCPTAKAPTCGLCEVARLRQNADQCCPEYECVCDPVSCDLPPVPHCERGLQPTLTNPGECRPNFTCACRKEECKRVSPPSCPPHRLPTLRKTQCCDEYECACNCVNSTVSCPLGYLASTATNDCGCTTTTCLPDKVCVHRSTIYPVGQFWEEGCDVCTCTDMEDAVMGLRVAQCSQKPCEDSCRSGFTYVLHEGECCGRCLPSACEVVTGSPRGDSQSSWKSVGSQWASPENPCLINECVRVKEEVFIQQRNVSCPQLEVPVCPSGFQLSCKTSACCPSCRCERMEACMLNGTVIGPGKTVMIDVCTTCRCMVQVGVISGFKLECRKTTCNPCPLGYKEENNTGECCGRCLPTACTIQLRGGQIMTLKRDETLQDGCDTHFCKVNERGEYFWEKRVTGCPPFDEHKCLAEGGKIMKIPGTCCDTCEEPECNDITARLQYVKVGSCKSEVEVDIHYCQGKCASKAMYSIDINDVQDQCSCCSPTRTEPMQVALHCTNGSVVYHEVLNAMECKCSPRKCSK
binding of human von Willebrand factor to europium (Eu)-chelate-labeled chimeric GPIb-Fc protein, sequence (P07359 17-335 limits assumed, change not shown): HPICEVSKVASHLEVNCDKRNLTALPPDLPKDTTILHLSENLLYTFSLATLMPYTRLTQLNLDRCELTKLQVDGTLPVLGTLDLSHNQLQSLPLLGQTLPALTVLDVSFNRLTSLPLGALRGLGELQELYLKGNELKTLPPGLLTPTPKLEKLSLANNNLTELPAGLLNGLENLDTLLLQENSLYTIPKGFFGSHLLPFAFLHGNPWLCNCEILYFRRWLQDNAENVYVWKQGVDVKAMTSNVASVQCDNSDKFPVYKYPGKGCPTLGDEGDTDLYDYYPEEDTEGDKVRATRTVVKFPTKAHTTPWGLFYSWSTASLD

| IC50 | Molecule |
| --- | --- |
| 34.4 µM | Cc1cc(N)c2cc(C(=O)Nc3ccc(NC(=O)c4cccnc4N)cc3)ccc2n1 [Example 21, 4-Amino-N-(4-{[(2-amino-3-pyridinyl)carbonyl]amino}phenyl)-2-methyl-6-quinolinecarboxamide] |
| 15 µM | Cc1cc(N)c2cc(C(=O)Nc3ccc(NC(=O)c4cccnc4)cc3)ccc2n1 [Example 17, 4-Amino-N-{4-[(3-pyridinylcarbonyl)amino]phenyl}-2-methyl-6-quinolinecarboxamide] |
| 89.9 µM | Cc1cc(N)c2cc(NC(=O)c3ccc(CNC(=O)c4ccc(N)nc4)cc3)ccc2n1 [Example 5, 6-Amino-N-[4-(4-amino-2-methyl-quinolin-6-ylcarbamoyl)-benzyl]-nicotinamide] |
| 52.6 µM | Cc1cc(N)c2cc(C(=O)Nc3ccc(NC(=O)c4cccnc4Cl)cc3)ccc2n1 [Example 18, 4-Amino-N-(4-{[(2-chloro-3-pyridinyl)carbonyl]amino}phenyl)-2-methyl-6-quinolinecarboxamide] |
| 3.61 µM | COc1cc(NC(=O)c2ccc3nc(N)ccc3c2)ccc1NC(=O)c1ccc2nc(C)cc(N)c2c1 [Example 34, 4-Amino-N-(4-{[(2-amino-6-quinolinyl)carbonyl]amino}-2-methoxyphenyl)-2-methyl-6-quinolinecarboxamide] |
| 9.18 µM | COc1cc(NC(=O)c2ccc3[nH]c(C)nc3c2)ccc1NC(=O)c1ccc2nc(C)cc(N)c2c1 [Example 35, 4-Amino-N-(2-methoxy-4-{[(2-methyl-1H-benzimidazol-5-yl)carbonyl]amino}phenyl)-2-methyl-6-quinolinecarboxamide] |
| 2.56 µM | Cc1cc(N)c2cc(C(=O)Nc3ccc(CNc4ccc5cn[nH]c5c4)cc3)ccc2n1 [Example 37, 4-Amino-N-{4-[(1H-indazol-6-ylamino)methyl]phenyl}-2-methyl-6-quinolinecarboxamide] |
| 1.7 µM | Cc1cc(N)c2cc(C(=O)Nc3ccc(NC(=O)c4ccc5nc(N)ccc5c4)cc3)ccc2n1 [Example 33, 4-Amino-N-(4-{[(2-amino-6-quinolinyl)carbonyl]amino}phenyl)-2-methyl-6-quinolinecarboxamide] |
| 28.8 µM | Cc1cc(N)c2cc(C(=O)Nc3ccc(CNC(=O)c4cncc(Br)c4)cc3)ccc2n1 [Example 14, 4-Amino-N-[4-({[(3-bromo-5-pyridinyl)carbonyl]amino}methyl)phenyl]-2-methyl-6-quinolinecarboxamide] |
| 24.3 µM | Cc1cc(NCCC(=O)Nc2ccc3nc(C)cc(N)c3c2)nc(N)n1 [Example 1, 3-(2-Amino-6-methyl-pyrimidin-4-ylamino)-N-(4-amino-2-methyl-quinolin-6-yl)-propionamide] |
| 20.9 µM | Cc1cc(N)c2cc(C(=O)Nc3ccc(NC(=O)c4cncc(Br)c4)cc3)ccc2n1 [Example 19, 4-Amino-N-(4-{[(5-bromo-3-pyridinyl)carbonyl]amino}phenyl)-2-methyl-6-quinolinecarboxamide] |
| 7.62 µM | Cc1cc(N)c2cc(C(=O)Nc3ccc(Nc4cc(C)[n+](C)c(N)n4)cc3)ccc2n1 [Example 7, 2-Amino-4-[(4-{[(4-amino-2-methyl-6-quinolinyl)carbonyl]amino}phenyl)amino]-1,6-dimethylpyrimidin-1-ium] |
| 42.1 µM | Cc1cc(N)c2cc(C(=O)Nc3ccc(NC(=O)c4ccc(O)nc4)cc3)ccc2n1 [Example 23, 4-Amino-N-(4-{[(2-hydroxy-5-pyridinyl)carbonyl]amino}phenyl)-2-methyl-6-quinolinecarboxamide] |
| 47.9 µM | Cc1cc(N)c2cc(NC(=O)c3ccc(CNC(=O)c4cncc(N5CCCC5)n4)cc3)ccc2n1 [Example 6, 6-Pyrrolidin-1-yl-pyrazine-2-carboxylic acid 4-(4-amino-2-methyl-quinolin-6-ylcarbamoyl)-benzylamide] |
| 15.2 µM | Cc1cc(N)c2cc(C(=O)Nc3ccc(NC(=O)c4cnccn4)cc3)ccc2n1 [Example 24, 4-Amino-N-(4-{[(2-pyrazinyl)carbonyl]amino}phenyl)-2-methyl-6-quinolinecarboxamide] |
| 42.9 µM | Cc1cc(N)c2cc(C(=O)Nc3ccc(CNC(=O)c4ccc(Cl)nc4)cc3)ccc2n1 [Example 11, 4-Amino-N-[4-({[(6-chloro-3-pyridinyl)carbonyl]amino}methyl)phenyl]-2-methyl-6-quinolinecarboxamide] |
| 20.1 µM | Cc1cc(N)c2cc(C(=O)Nc3ccc(CNc4cc(C)[n+](C)c(N)n4)cc3)ccc2n1 [Example 9, 2-Amino-4-[(4-{[(4-amino-2-methyl-6-quinolinyl)carbonyl]amino}benzyl)amino]-1,6-dimethylpyrimidin-1-ium] |
| 92.1 µM | Cc1cc(N)c2cc(NC(=O)c3ccc(CNc4cc(C)[n+](C)c(N)n4)cc3)ccc2n1 [Example 3, 2-Amino-4-[4-(4-amino-2-methyl-quinolin-6-ylcarbamoyl)-benzylamino]-1,6-dimethyl-pyrimidin-1-ium] |
| 7.5 µM | Cc1cc(N)c2cc(C(=O)Nc3ccc(NC(=O)c4ccc5[nH]cnc5c4)cc3)ccc2n1 [Example 32, 4-amino-N-{4-[(1H-benzimidazol-5-ylcarbonyl)amino]phenyl}-2-methyl-6-quinolinecarboxamide] |
| 68.6 µM | Cc1cc(NCc2ccc(NC(=O)c3ccc4nc(C)cc(N)c4c3)cc2)nc(N)n1 [Example 10, 2-Amino-4-[(4-{[(4-amino-2-methyl-6-quinolinyl)carbonyl]amino}benzyl)amino]-6-methylpyrimidine] |
| 22.9 µM | Cc1cc(N)c2cc(C(=O)Nc3ccc(NC(=O)c4cnc(Cl)c(Cl)c4)cc3)ccc2n1 [Example 25, 4-Amino-N-(4-{[(2,3-dichloro-5-pyridinyl)carbonyl]amino}phenyl)-2-methyl-6-quinolinecarboxamide] |
| 58.4 µM | Cc1cc(N)c2cc(C(=O)Nc3ccc(CNC(=O)c4ccccn4)cc3)ccc2n1 [Example 12, 4-Amino-2-methyl-N-(4-{[(2-pyridinylcarbonyl)amino]methyl}phenyl)-6-quinolinecarboxamide] |
| 90.1 µM | Cc1cc(N)c2cc(C(=O)Nc3ccc(CNC(=O)c4ccnc(Cl)c4)cc3)ccc2n1 [Example 13, 4-Amino-N-[4-({[(2-chloro-4-pyridinyl)carbonyl]amino}methyl)phenyl]-2-methyl-6-quinolinecarboxamide] |
| 4.03 µM | Cc1cc(N)c2cc(C(=O)Nc3ccc(NC(=O)c4ccc5[nH]c(N)nc5c4)cc3)ccc2n1 [Example 30, 4-Amino-N-(4-{[(2-amino-1H-benzimidazol-5-yl)carbonyl]amino}phenyl)-2-methyl-6-quinolinecarboxamide] |
| 32.8 µM | Cc1cc(N)c2cc(C(=O)Nc3ccc(NC(=O)c4ccc(Cl)c(S(N)(=O)=O)c4)cc3)ccc2n1 [Example 26, 4-Amino-N-(4-{[3-(aminosulfonyl)-4-chlorobenzoyl]amino}phenyl)-2-methyl-6-quinolinecarboxamide] |
| 4.41 µM | Cc1cc(N)c2cc(C(=O)Nc3ccc(NC(=O)c4nccnc4N)cc3)ccc2n1 [Example 20, 4-Amino-N-(4-{[(2-amino-3-pyrazinyl)carbonyl]amino}phenyl)-2-methyl-6-quinolinecarboxamide] |
| 46.5 µM | Cc1cc(N)c2cc(C(=O)Nc3ccc(NC(=O)c4cccc(N(C)C)c4)cc3)ccc2n1 [Example 27, 4-Amino-N-{4-[(3-dimethylaminobenzoyl)amino]phenyl}-2-methyl-6-quinolinecarboxamide] |
| 33.3 µM | Cc1cc(N)c2cc(C(=O)NC3CCC(NC(=O)c4ccc5nc(N)sc5c4)CC3)ccc2n1 (stereo not shown) [Example 38, 4-Amino-N-(4-{[(2-amino-1,3-benzothiazol-6-yl)carbonyl]amino}cyclohexyl)-2-methyl-6-quinolinecarboxamide] |
| 43.2 µM | Cc1cc(N)c2cc(C(=O)Nc3ccc(NC(=O)c4ccccn4)cc3)ccc2n1 [Example 16, 4-Amino-N-{4-[(2-pyridinylcarbonyl)amino]phenyl}-2-methyl-6-quinolinecarboxamide] |
| 54.7 µM | Cc1cc(N)c2cc(C(=O)Nc3ccc(CNC(=O)c4nccnc4N)cc3)ccc2n1 [Example 15, 4-Amino-N-[4-({[(3-amino-2-pyrazinyl)carbonyl]amino}methyl)phenyl]-2-methyl-6-quinolinecarboxamide] |

| Molecule | IC50 |
| --- | --- |
| Cc1cc(N)c2cc(C(=O)Nc3ccc(NC(=O)c4ccc5nc(C)cc(N)c5c4)cc3)ccc2n1 [Example 36] | 1.57 µM |
| Cc1cc(N)c2cc(NC(=O)c3cccc(Nc4cc(C)[n+](C)c(N)n4)c3)ccc2n1 [Example 2, 2-Amino-4-[3-(4-amino-2-methyl-quinolin-6-ylcarbamoyl)-phenylamino]-1,6-dimethyl-pyrimidin-1-ium] | 8.84 µM |
| 4-Amino-N-(4-{[(2-methyl-1H-benzimidazol-5-yl)carbonyl]amino}phenyl)-2-methyl-6-quinolinecarboxamide [Example 28] | 9.56 µM |
| Cc1cc(N)c2cc(C(=O)Nc3ccc(NC(=O)c4ccc5nc(N)sc5c4)cc3)ccc2n1 [Example 31] | 2.9 µM |
